According to patent US20210330611A1, “THERAPY FOR NEUROLOGICAL DISEASES/DISORDERS” (priority 2020, published 2021):
“And” between values parts separate entries of the source, which are not always exact repeats. Identical values can stand only once. Counter-ions that a name gives are not always drawn. Like-named read-outs stand apart in the source and are kept apart here.

Legend:
[1] = system: fibrin- and LPS-induced microglia activation; assay: cells; type: cell-based, rat
primary rat microglia [2] = assay: Cell toxicity (dead cells, size <150 μm2) in coated fibrin (cFib) assay; conditions: primary microglia HTS;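 note: share of dead cells sized under 150 µm2 at 10 µM in fibrin-stimulated microglia HTS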
primary rat microglia [3] = assay: Cell toxicity (dead cells, size <150 μm2) in LPS assay; conditions: primary microglia HTS
[4] = system: LPS-induced microglia activation; assay: Image-based assay of LPS-induced microglia activation (HTS and dose response); type: cell-based, rat; conditions: primary microglia HTS, LPS stimulation; for inhibition at 10 µM: Rattus norvegicus, Microglia, 48 h, read-out: LPS % inhibition
[5] = system: fibrin-induced microglia activation; assay: Image-based assay of fibrin-induced microglia activation (HTS and dose response); type: cell-based, rat; conditions: Rattus norvegicus, Microglia, primary microglia HTS, fibrin stimulation, read-out: Fibrin % inhibition
[6] = quadrant by fibrin and LPS inhibition in HTS of 1907 compounds
[7] = fibrin stimulation, toxicity = cell size <150 μm2
[8] = LPS stimulation, toxicity = cell size <150 μm2
[9] = activation = cell size >800 μm2
[10] = increased cell size (>800 μm^2) as marker of activation
[11] = fibrin stimulation, decreased size (<150 μm^2) as marker of toxicity
[12] = LPS stimulation, decreased size (<150 μm^2) as marker of toxicity

**Q.** CC(C)(C)NC(=O)[C@H]1CC[C@H]2[C@@H]3CC[C@H]4NC(=O)C=C[C@]4(C)[C@H]3CC[C@]12C [Finasteride] was tested. Which “Quadrant (FIG. 5b)” value [1, 6] did it give?
**A.** The value was “Q4”.

**Q.** And the “Fibrin % cell toxicity” value (primary rat microglia [2]; [7])?
**A.** The value was 1% and 0%.

**Q.** What about the “LPS % cell toxicity” value (primary rat microglia [3]; [8]) of the same compound?
**A.** The value was 1% and 0%.

**Q.** How did the “Quadrant (FIG. 5b)” value [1, 6] turn out when Oc1ccc(C2CNCCc3c2cc(O)c(O)c3Cl)cc1 (stereo not shown) [Fenoldopam] was run?
**A.** Its value is “Q4”.

**Q.** And the “Fibrin % cell toxicity” value (primary rat microglia [2]; [7])?
**A.** Its value is 1% and 0%.

**Q.** What about the “LPS % cell toxicity” value (primary rat microglia [3]; [8]) of the same compound?
**A.** Its value is 0%.

**Q.** How did the inhibition at 10 µM [4, 9] turn out when OC[C@H]1O[C@@H](n2cnc3c(O)ncnc32)[C@H](O)[C@@H]1O [Inosine] was run?
**A.** Its inhibition at 10 µM is -11%.

**Q.** What about the inhibition at 10 µM [4, 10] of the same compound?
**A.** The inhibition at 10 µM was 115%.

**Q.** What about the inhibition at 10 µM [5, 9] of the same compound?
**A.** Its inhibition at 10 µM is -31%.

**Q.** What about the inhibition at 10 µM [5, 10] of the same compound?
**A.** The inhibition at 10 µM was 111%.

**Q.** What about the “Fibrin % cell toxicity” value (primary rat microglia [2]; [7]) of the same compound?
**A.** The value was 1%.

**Q.** What about the “Fibrin % cell toxicity” value (primary rat microglia [2]; [11]) of the same compound?
**A.** The value was 7%.

**Q.** What about the “LPS % cell toxicity” value (primary rat microglia [3]; [8]) of the same compound?
**A.** The value was 0%.

**Q.** And the “LPS % cell toxicity” value (primary rat microglia [3]; [12])?
**A.** The value was 2%.

**Q.** With CCCCCN(C)CCC(O)(P(=O)(O)O)P(=O)(O)O [Ibandronate] as the compound, how does the “Quadrant (FIG. 5b)” value [1, 6] read?
**A.** The value was “Q4”.

**Q.** What about the “Fibrin % cell toxicity” value (primary rat microglia [2]; [7]) of the same compound?
**A.** The value was 0% and 1%.

**Q.** And the “LPS % cell toxicity” value (primary rat microglia [3]; [8])?
**A.** The value was 0%.

**Q.** Which “Quadrant (FIG. 5b)” value [1, 6] does the source give for CCCC1O[C@@H]2C[C@H]3[C@@H]4CCC5=CC(=O)C=C[C@]5(C)[C@H]4[C@@H](O)C[C@]3(C)[C@]2(C(=O)CO)O1 (stereo partly shown) [Budesonide] here?
**A.** The value was “Q2”.

**Q.** And the inhibition at 10 µM [5, 10]?
**A.** Its inhibition at 10 µM is 110%.

**Q.** What about the “Fibrin % cell toxicity” value (primary rat microglia [2]; [11]) of the same compound?
**A.** Its value is 3% and 6%.

**Q.** What about the “LPS % cell toxicity” value (primary rat microglia [3]; [12]) of the same compound?
**A.** Its value is 5% and 1%.

**Q.** How did the “Quadrant (FIG. 5b)” value [1, 6] turn out when CC(C)[C@H]1CC[C@H](C(=O)N[C@H](Cc2ccccc2)C(=O)O)CC1 [Nateglinide] was run?
**A.** The value was “Q4”.

**Q.** What about the “Fibrin % cell toxicity” value (primary rat microglia [2]; [11]) of the same compound?
**A.** Its value is 1%.

**Q.** And the “LPS % cell toxicity” value (primary rat microglia [3]; [12])?
**A.** Its value is 1% and 0%.

**Q.** Which inhibition at 10 µM [4, 9] does the source give for NCC1(CC(=O)O)CCCCC1 [Gabapentin] here?
**A.** The inhibition at 10 µM was 19%.

**Q.** And the “Quadrant (FIG. 5b)” value [1, 6]?
**A.** Its value is “Q4”.

**Q.** What about the “Fibrin % cell toxicity” value (primary rat microglia [2]; [7]) of the same compound?
**A.** Its value is 1%.

**Q.** And the “LPS % cell toxicity” value (primary rat microglia [3]; [8])?
**A.** Its value is 1% and 0%.

**Q.** For Nc1ccn([C@@H]2CS[C@H](CO)O2)c(=O)n1 [Lamivudine], which “Quadrant (FIG. 5b)” value [1, 6] is on record?
**A.** The value was “Q4”.

**Q.** What about the “Fibrin % cell toxicity” value (primary rat microglia [2]; [7]) of the same compound?
**A.** The value was 1%.

**Q.** And the “LPS % cell toxicity” value (primary rat microglia [3]; [8])?
**A.** Its value is 0%.

**Q.** What does the source list for NC[C@H](O)c1ccc(O)c(O)c1 [Norepinephrine]?
**A.** Quadrant (FIG. 5b) [1, 6]: Q4; Fibrin % cell toxicity (primary rat microglia [2]; [11]): 1%; LPS % cell toxicity (primary rat microglia [3]; [12]): 0%

**Q.** Which results are given for CNC[C@H](O)[C@@H](O)[C@H](O)[C@H](O)CO [Meglumine]?
**A.** Quadrant (FIG. 5b) [1, 6]: Q4; Fibrin % cell toxicity (primary rat microglia [2]; [11]): 0% and 1%; LPS % cell toxicity (primary rat microglia [3]; [12]): 0% and 1%

**Q.** What does the source list for CC[C@@H](CO)NC(=O)[C@@H]1C=C2c3cccc4c3c(cn4C)C[C@H]2N(C)C1 [Methysergide Maleate]?
**A.** Quadrant (FIG. 5b) [1, 6]: Q4; Fibrin % cell toxicity (primary rat microglia [2]; [11]): 0% and 1%; LPS % cell toxicity (primary rat microglia [3]; [12]): 0%

**Q.** Which inhibition at 10 µM [4, 9] does the source give for Nc1nc2ncc(CNc3ccc(C(=O)N[C@@H](CCC(=O)O)C(=O)O)cc3)nc2c(=O)[nH]1 [Folic Acid] here?
**A.** The inhibition at 10 µM was 22%.

**Q.** What about the “Quadrant (FIG. 5b)” value [1, 6] of the same compound?
**A.** The value was “Q4”.

**Q.** What about the “Fibrin % cell toxicity” value (primary rat microglia [2]; [7]) of the same compound?
**A.** Its value is 1%.

**Q.** What about the “LPS % cell toxicity” value (primary rat microglia [3]; [8]) of the same compound?
**A.** The value was 0% and 1%.

**Q.** For C[C@]1(Cn2ccnn2)[C@H](C(=O)O)N2C(=O)C[C@H]2S1(=O)=O [Tazobactam], which “Quadrant (FIG. 5b)” value ([1]; HTS of 1907 compounds, quadrant by fibrin and LPS inhibition) is on record?
**A.** Its value is “Q4”.

**Q.** What about the “Fibrin % cell toxicity” value (primary rat microglia [2]; 10 μM, fibrin assay, cell size <150 μm^2 as marker of toxicity) of the same compound?
**A.** The value was 1% and 0%.

**Q.** And the “LPS % cell toxicity” value (primary rat microglia [3]; 10 μM, LPS assay, cell size <150 μm^2 as marker of toxicity)?
**A.** Its value is 0%.

**Q.** With CC(=O)[C@@]1(O)CC[C@H]2[C@@H]3C[C@H](C)C4=CC(=O)C=C[C@]4(C)[C@@]3(F)[C@@H](O)C[C@@]21C [Fluorometholone] as the compound, how does the “Quadrant (FIG. 5b)” value [1, 6] read?
**A.** Its value is “Q2”.

**Q.** What about the inhibition at 10 µM [5, 10] of the same compound?
**A.** The inhibition at 10 µM was 104%.

**Q.** What about the “Fibrin % cell toxicity” value (primary rat microglia [2]; [11]) of the same compound?
**A.** The value was 6% and 3%.

**Q.** And the “LPS % cell toxicity” value (primary rat microglia [3]; [12])?
**A.** Its value is 1% and 7%.

**Q.** What does the source list for C[C@H](N)[C@H](O)c1cccc(O)c1 [Metaraminol]?
**A.** Quadrant (FIG. 5b) [1, 6]: Q4; Fibrin % cell toxicity (primary rat microglia [2]; [11]): 0% and 1%; LPS % cell toxicity (primary rat microglia [3]; [12]): 1%

**Q.** For CN1Cc2c(N)cccc2C(c2ccccc2)C1 (stereo not shown) [Nomifensine], which “Quadrant (FIG. 5b)” value [1, 6] is on record?
**A.** The value was “Q4”.

**Q.** And the “Fibrin % cell toxicity” value (primary rat microglia [2]; [11])?
**A.** Its value is 0%.

**Q.** What about the “LPS % cell toxicity” value (primary rat microglia [3]; [12]) of the same compound?
**A.** Its value is 0%.

**Q.** Which LPS % inhibition [4, 9] does the source give for CC[C@H](C)[C@H]1O[C@]2(CC[C@@H]1C)C[C@@H]1C[C@@H](C/C=C(\C)[C@@H](O[C@H]3C[C@H](OC)[C@@H](O[C@H]4C[C@H](OC)[C@@H](O)[C@H](C)O4)[C@H](C)O3)[C@@H](C)/C=C/C=C3\CO[C@@H]4[C@H](O)C(C)=C[C@@H](C(=O)O1)[C@]34O)O2 [Ivermectin] here?
**A.** The LPS % inhibition was 10% and 19%.

**Q.** What about the “Quadrant (FIG. 5b)” value [1, 6] of the same compound?
**A.** Its value is “Q4”.

**Q.** And the “Fibrin % cell toxicity” value (primary rat microglia [2]; [7])?
**A.** Its value is 1% and 0%.

**Q.** And the “LPS % cell toxicity” value (primary rat microglia [3]; [8])?
**A.** The value was 0%.
